Results on eleven compounds are retold here after patent US12673961B2 (Agios Pharmaceuticals, Inc., priority 2022, dated 2026).

For the assay, the target named is T1, human PAH with the R408W mutation (Homo sapiens, UniProt P00439, R408W).
T1 construct: expressed in transfected cells
T1 sequence (P00439 1-452 R408W): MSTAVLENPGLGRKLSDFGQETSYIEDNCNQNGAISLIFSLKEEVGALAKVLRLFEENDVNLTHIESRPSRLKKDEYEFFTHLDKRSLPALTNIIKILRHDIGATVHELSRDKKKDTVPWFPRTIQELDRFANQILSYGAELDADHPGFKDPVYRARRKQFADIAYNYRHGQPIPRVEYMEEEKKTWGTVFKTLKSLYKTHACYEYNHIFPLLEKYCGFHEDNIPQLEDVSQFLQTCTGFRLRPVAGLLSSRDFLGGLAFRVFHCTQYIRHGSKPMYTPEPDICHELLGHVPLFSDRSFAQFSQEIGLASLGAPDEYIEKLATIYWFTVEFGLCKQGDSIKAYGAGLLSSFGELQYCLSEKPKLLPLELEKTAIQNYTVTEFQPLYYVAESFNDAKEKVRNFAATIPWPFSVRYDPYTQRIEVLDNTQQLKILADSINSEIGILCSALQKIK
In words: Cell Based Phenylalanine Flux Assay.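 Further: Ten-point dose curve from 2-fold serial dilutions, run in duplicate at 0.5% DMSO final, tracer step used 20 µM sepiapterin and 800 µM labeled phenylalanine.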 The note with it: A375 cells expressing human R408W PAH; 24 hrs with compound, then sepiapterin and 13C9,15N-Phenylalanine for 4 hours; 13C-Tyrosine by LC-MS; average where tested multiple times; read-out: AC50.
A word on the AC50: it is the concentration at which the activity in the assay is half-maximal. On to `Cc1cccn2nc([C@@H]3c4nc[nH]c4CCN3c3nnc(-c4cccc(F)n4)o3)cc12` [Example 2361, (S)-2-(6-fluoropyridin-2-yl)-5-(4-(4-methylpyrazolo[1,5-a]pyridin-2-yl)-1,4,6,7-tetrahydro-5H-imidazo[4,5-c]pyridin-5-yl)-1,3,4-oxadiazole], for which the AC50 was below 0.5 µM.
To `O=C(c1nnc(-c2ccc(F)cn2)o1)N1CCc2[nH]cnc2[C@H]1c1cc2ccccn2n1` [Example 2365, (S)-(5-(5-fluoropyridin-2-yl)-1,3,4-oxadiazol-2-yl)(4-(pyrazolo[1,5-a]pyridin-2-yl)-6,7-dihydro-1H-imidazo[4,5-c]pyridin-5(4H)-yl)methanone] belongs 1 to 5 µM; to `O=C(c1cn[nH]c1C(F)F)N1CCc2[nH]cnc2[C@H]1c1cc2ccccn2n1` [Example 2366, (S)-(5-(difluoromethyl)-1H-pyrazol-4-yl)(4-(pyrazolo[1,5-a]pyridin-2-yl)-6,7-dihydro-1H-imidazo[4,5-c]pyridin-5(4H)-yl)methanone], 1 to 5 µM.
As for `Cc1ccc2cc([C@H]3c4nc[nH]c4CCN3C(=O)c3nnc(-c4cnn(C)c4)o3)nn2c1` [Example 2381, (R)-(5-(1-methyl-1H-pyrazol-4-yl)-1,3,4-oxadiazol-2-yl)(4-(6-methylpyrazolo[1,5-a]pyridin-2-yl)-6,7-dihydro-1H-imidazo[4,5-c]pyridin-5(4H)-yl)methanone], the AC50 is above 5 µM.
Consider `O=C(c1nnc(C2CC2)o1)N1CCc2[nH]cnc2[C@H]1c1cc2ccc(F)cn2n1` [Example 2404, (S)-(5-cyclopropyl-1,3,4-oxadiazol-2-yl)(4-(6-fluoropyrazolo[1,5-a]pyridin-2-yl)-6,7-dihydro-1H-imidazo[4,5-c]pyridin-5(4H)-yl)methanone], for which the AC50 was in the range of 1 to 5 µM.
For `Cn1cc(-c2nnc(C(=O)N3CCc4[nH]cnc4[C@H]3c3cc4ccc(C(F)(F)F)cn4n3)o2)cn1` [Example 2416, (S)-(5-(1-methyl-1H-pyrazol-4-yl)-1,3,4-oxadiazol-2-yl)(4-(6-(trifluoromethyl)pyrazolo[1,5-a]pyridin-2-yl)-6,7-dihydro-1H-imidazo [4,5-c]pyridin-5(4H)-yl)methanone], the AC50 lay in the range of 1 to 5 µM.
For the compound `O=C(c1nnc(-c2cnn(C(F)(F)F)c2)o1)N1CCc2[nH]cnc2[C@H]1c1cc2cccc(C(F)(F)F)n2n1` [Example 2428, (S)-(5-(1-(trifluoromethyl)-1H-pyrazol-4-yl)-1,3,4-oxadiazol-2-yl)(4-(7-(trifluoromethyl)pyrazolo[1,5-a]pyridin-2-yl)-6,7-dihydro-1H-imidazo[4,5-c]pyridin-5(4H)-yl)methanone], the AC50 lay in the range of 1 to 5 µM.
In the case of `CN(C)c1ccc2c(C(=O)N3CCc4[nH]cnc4[C@@H]3c3cc4cccc(Cl)n4n3)cnn2c1` [Example 2475, (R)-(4-(7-chloropyrazolo [1,5-a]pyridin-2-yl)-6,7-dihydro-1H-imidazo[4,5-c]pyridin-5(4H)-yl)(6-(dimethylamino)pyrazolo[1,5-a]pyridin-3-yl)methanone], the AC50 is above 5 µM.
As for `Cc1nnc(C(=O)N2CCc3[nH]cnc3[C@H]2c2cc3c(C4CC4)cccn3n2)o1` [Example 2494, (S)-(4-(4-cyclopropylpyrazolo [1,5-a]pyridin-2-yl)-1,4,6,7-tetrahydro-5H-imidazo [4,5-c]pyridin-5-yl)(5-methyl-1,3,4-oxadiazol-2-yl)methanone], the AC50 is 1 to 5 µM.
To `CC(C)c1cccn2nc([C@@H]3c4nc[nH]c4CCN3c3nnc(-c4cccnn4)o3)cc12` [Example 2512, (S)-2-(4-(4-isopropylpyrazolo [1,5-a]pyridin-2-yl)-1,4,6,7-tetrahydro-5H-imidazo [4,5-c]pyridin-5-yl)-5-(pyridazin-3-yl)-1,3,4-oxadiazole] belongs 1 to 5 µM; to “(S)-(6-(methoxymethyl) pyrazolo[1,5-a]pyridin-3-yl)(4- (4-methylpyrazolo[1,5-a] pyridin-2-yl)-6,7-dihydro-1H- imidazo[4,5-c]pyridin- 5(4H)-yl)methanone [Example 1624]”, 0.5 to 1 µM.
